Assay results published in patent publication US7041701B2, “Triterpenoid derivatives” (Univerzita Palackeho V Olomouci, priority 2000, dated 2006).

Assays:
[1] = tested on: human SK-N-AS neuroblastoma; assay: In vivo activity in xenotransplanted human neuroblastoma; design: species or system CD-1/Ctrl-1 nu/nu nude female mice; conditions: I.3 1 or 2 mg/mouse s.c. or i.p., 3×D1,2,5,6,9,10; SK-N-AS in nude mice (FIG. 2)
Experimental: Human neuroblastoma SK-N-AS cell line was obtained from ATTC. The line was cultured in Dulbeco's modified essential medium with 4.5 g dextrose/l, 10% of foetal calf serum, 2 mM glutamine, 100 U/ml penicillin and […] streptomycin. For transplantation purposes, only the cells in log phase were used.
CD-1/Ctrl-1 nu/nu nude female mice, 8 weeks old, 18–22 g weight were used in this study (IffaCredo, France). Animals were inoculated with 5.10^6 tumour cells subcutaneously into right inquinal region. Following transplantation, tumor growth was measured in both the control/vehicle and the treated groups using calipers. Tumor volume (TV) was calculated as follows: TV=(a^2×b)/2, where a is width and b is length The statistical significance was evaluated using a […].
Cisplatin (Platidiam 10 inj, sicc., Lachema, Czech Republic) was used as a control drug in this experiment. It was diluted in apyrogenic water and applied to animals in a final volume of 0.18 ml subcutaneously at day 1.
I.3 was synthesised as described above. It was suspended at 10 mg/ml in 5% dextrose and pH was adjusted to 8.0 with sodium hydroxide. vehicle: 5% dextrose with pH adjusted to 8.0 with sodium hydroxide. […]

H3 histone (Lys9) = assay: Histone acetylation, Western blot in CEM cells; type: cell-based, human
Experimental: CEM cells were cultured in Dulbeco's modified essential medium with 4.5 g dextrose/l, 10% of foetal calf serum, 2 mM glutamine, 100 U/ml penicillin and 100 μg/ml streptomycin with/without the indicated concentrations of HDAC inhibitor TSA or I.3. At selected time points, cells were harvested, washed in ice cold Hank's balanced salt solution and solubilized on ice using SDS-PAGE sample buffer containing protease and phosphatase inhibitors (10 μg/ml of leupeptin, 10 μg/ml of aprotinin, 10 μg/ml of soybean trypsin inhibitor, 100 μmol of benzamide, 1 mM of sodium vanadate, 1 mM of NaF, 1 mM of phenylphosphate) and boiled immediately.
Total cellular proteins (100 μg/well) were separated on SDS-PAGE electrophoresis, blotted on polyvinyldifluoride membranes and acetylated histone was detected using a anti-acetyl(Lys9)-histone H3 rabbit polyclonal antibody (Cell Signalling Technology, Beverly, Mass.; Cat# 9671L) and visualized by chemilumniuscence (ECL-Western Blotting System, Amersham). Details of the Western blot technique are described in Ausubel, F. M., Brent, R, Kingston, R. E., Moore, D. D., Seidman, J. G., Smith, J. A., Struhl, K. (Eds): Short Protocols in Molecular. Biology, 2nd edition, John Wiley & Sons, New York, Chichester, Brisbane, Toronto, Singapore, 1992, page 10–33–10–35.

[2] = tested on: HepG2 human hepatocellular carcinoma; assay: MTT cytotoxicity assay, HepG2; type: cell-based; conditions: 72 hours, read-out: TCS50
Source text: One of the parameters used as the basis for colorimetric assays is the metabolic activity of viable cells. For example, a microtiter assay which uses the tetrazolium salt MTT is now widely used to quantitate cell proliferation and cytotoxicity [Hajdúch M, Mihál V, Minarík J, Fáber E, Safárová M, Weigl E, Antálek P.: Cytotechnology, 1996, 19, 243–245]. For instance, this assay is used in drug screening programs and in chemosensitivity testing. Because tetrazolium salts are cleaved only by metabolically active cells, these assays exclusively detect viable cells. In the case of the MTT assay, yellow soluble tetrazolium salt is reduced to a coloured water-insoluble formazan salt. After it is solubilized, the formazan formed can easily and rapidly be quantified in a conventional ELISA plate reader at 570 nm (maximum absorbancy). The quantity of reduced formazan corresponds to the number of vital cells in the culture. […]
The cell suspensions that were prepared and diluted according to the particular cell type and the expected target cell density (2,500–30,000 cells per well based on cell growth characteristics) were added by pipette (80 μl) into 96/well microtiter plates. […] Usually, test compounds were evaluated at six 4-fold dilutions. […] The tumour cell survival (TCS) was calculated using the following equitation: TCS=(ODdrug exposed well/mean ODcontrol wells)×100%. […]

Compound: CC(=O)OC[C@@]1(C(=O)O)CC[C@]2(C)[C@H](CC[C@@H]3[C@@]4(C)CC[C@H](OC(C)=O)C(C)(C)[C@@H]4CC[C@]32C)C1=O [I.3, 3β,28-diacetoxy-18-oxo-19,20,21,29,30-pentanorlupan-22-oic acid]
- tumor growth (tumor volume) [1]: no tumor growth
- time points showing histone acetylation (H3 histone (Lys9); 2 μM (IC50)): 45 to 120 min
- time to appearance of acetylated histone (H3 histone (Lys9); 20 μM (10×IC50)): 30 min
- acetylation of H3 histone in Lys9 position (H3 histone (Lys9); Western blot (FIG. 5)): rapidly acetylated
- IC50 [2]: 1700 nM
